Results from patent publication US20210290553A1, “HC-1119 FORMULATION, PREPARATION METHOD AND USE THEREOF” (HINOVA PHARMACEUTICALS INC., priority 2018, published 2021).
Read-outs that look alike come from different tables or passages of the source.

Assays:
[1] = 160 mg QD 49 days, cited from earlier work
[2] = Clinical pharmacokinetic test of HC-1119 soft capsule; type: in vivo; details: human, plasma, oral, HC-1119 80 mg, day 84
Description: (1) Dosage: 80 mg/day (2 soft capsules of 40 mg)
(2) Administration way: continuous administration, once a day, the first administration being orally taken with empty stomach, thereafter no restriction on diet.
In the pharmacokinetic study, 9 subjects participated in this study.
The drug was taken by the subjects with empty stomach on the first day of the test, and 0˜0.5 h before taking the drug as well as 0.5 h, 0.75 h, 1 h, 2 h (±5 min), 4 h, 8 h, 12 h (±15 min), 24 h (±30 min) before administration on the second day), blood samples were collected, and 3 mL venous blood was drawn at each time point, then placed in an anticoagulant tube (the type of anticoagulant was determined according to the established analytical method).
0˜0.5 h before administration on day 7, 21, 35, 42, 56, 70, and 84 of continuous dosing, as well as 0.5 h, 0.75 h, 1 h, 2 h (±5 min), 4 h, 8 h, 12 h (±15 min), 24 h (±30 min, before administration on day 85) after administration on day 84, 3 mL venous blood was collected at each time point and placed in an anticoagulant tube (the type of anticoagulant was determined according to the established analytical method).
The sample should be centrifuged as soon as possible (about 3000 rpm, 10 min) to separate the plasma. The separated plasma samples need to be stored in two parts in a plasma cryotube. […]

[3] = Physical and chemical properties: solubility in water; type: physicochemical
Source text: (§1) Therefore, HC-1119 is an insoluble drug with high permeability, and belongs to the second category of BSC classification, and thus it is extremely important to improve the bioavailability thereof.

[4] = Permeability evaluated by Caco-2 cell model; type: in vitro ADME; details: human; 10 μM HC-1119, Caco-2 cell model; read-out: apparent permeability coefficient
Source text: as §1

Row | SMILES | AUCtau ([1]; Median) | CL/F ([1]; Median) | Cmax ([1]; Median) | Cmin ([1]; Median) | tmax ([1]; Median) | AUCtau ([1]; Min-Max) | Cmax ([1]; Min-Max) | Cmin ([1]; Min-Max) | tmax ([1]; Min-Max) | AUCtau ([1]; mean values) | CL/F ([1]; mean values) | Cmax ([1]; mean values) | Cmin ([1]; mean values) | Cmin ([1]; mean values, listed as enzalutamide) | AUC at 84 day ([2]; read-out: steady-state AUC on day 84) | concentration at 84 day ([2]; read-out: steady-state Ctrough on day 84) | solubility in water [3] | Papp at 10 μM [4]
1 | CNC(=O)c1ccc(N2C(=S)N(c3ccc(C#N)c(C(F)(F)F)c3)C(=O)C2(C)C)cc1F [Enzalutamide, enzalutamide] | 295.6 µg·h/mL | 0.541 L/h | 15550 ng/mL | 11450 ng/mL | 61.2 min | 240 to 593 µg·h/mL | 11800 to 28000 ng/mL | 6920 to 22400 ng/mL | 31.2 to 181 min | 321.5 µg·h/mL | 0.520 L/h | 16590 ng/mL | 12000 ng/mL | 12000 ng/mL |  |  |  | 
2 | [2H]C([2H])([2H])NC(=O)c1ccc(N2C(=S)N(c3ccc(C#N)c(C(F)(F)F)c3)C(=O)C2(C)C)cc1F [HC-1119, 4-{3-[4-cyano-3-(trifluoromethyl)phenyl]-5,5-dimethyl-4-oxo-2-thio-1-imidazolidinyl}-2-fluoro-N-trideuteromethylbenzamide] |  |  |  |  |  |  |  |  |  |  |  |  |  |  | 480 µg·h/mL | 18900 ng/mL | difficult to dissolve in water | 11.4 to 13.6 ×10⁻⁶ cm/s
